Each block holds one molecule with its values, some of them ahead of it.
Key:
[1] = Stability of Eu complexes on heating, at low pD and with Zn2+ (1H NMR); type: physicochemical
[2] = Relaxivity measurements at 1.41T and 37 °C; type: physicochemical
Experimental: (§1) Relaxivity measurements were performed on a Bruker mq60 Minispec at 1.41T and 37 °C. Longitudinal (T1) relaxation times were measured using an inversion recovery experiment with 10 inversion times of duration ranging between 0.05 × T1 and 5 × T1. Transverse (T2) relaxation times were measured using a CPMG pulse sequence. Relaxivity (r1, r2) was determined from the slope of a plot of 1/T1,2 vs [Gd] for at least 4 concentrations of Gd(III) (data shown in Supplementary Figs. 93–110). The T2 relaxation times of ^17O at 11.7T were estimated from the full-width at half-height of the H2^17O resonance at temperatures ranging from 278 to 368K. Reduced relaxation rates (1/T2r) were calculated by taking the difference of 1/T2 measured in the presence and absence of Gd(III) and dividing by the mole fraction of coordinated water molecules, assuming q = 1. […] However, at the high magnetic field used, and because of the very-fast water exchange rates observed, there was negligible contribution of T1e, and the data were refit to a two-parameter model using the water exchange rate at 310K (τM) and enthalpy of activation for water exchange (ΔH^‡) as adjustable parameters. The Gd-O hyperfine coupling constant, A/ħ, was assumed to be -3.8 × 10^6 rad s^−1 [57], [58]. Samples were prepared in neat H2O adjusted and enriched with a small amount of H2^17O.

[3] = Gd complexes biodistribution studies (ICP-MS); type: in vivo, BALB/c mice; conditions: 0.025 mmol/kg i.v., 5-360 min post injection
Description: Most commercially available Gd(III)-based MRI contrast agents are excreted rapidly and exclusively through the renal pathway. One of the few exceptions is an acyclic compound, Gd-EOB-DTPA, which has a mixed clearance (50% renal, 50% biliary) and is used for imaging of the liver and biliary system. Gd-BOPTA and MS-325 have predominantly renal elimination with <10% elimination through the biliary system. […] We illustrated with our studies that there is a significant variation in the biodistribution profiles despite the small structural differences of the chiral substituents (Supplementary Fig. 20). Gd biodistribution in BALB/c mice was measured by ICP-MS at 5, 15, 30, 60, 180 and 360 min following injection. […] Low levels of Gd(III) are present at 6 h post injection. […] The specific and unusual localisation of [GdL2]^− in the liver makes it a potential hepatobiliary-specific MRI contrast agent.
(§2) Gd concentrations were determined using an Agilent 8800-QQQ ICP-MS system. All samples were diluted with 0.1% Triton X-100 in 5% nitric acid. Lutetium internal standard was steadily introduced to the ICP-MS from an external source during the analysis. A linear calibration curve for each metal ranging from 0.1 ppb to 200 ppb was generated daily for the quantification.
Complexes [GdL1]^−, [GdL2]^− and [GdL5]^− were prepared by dissolving in saline solution, while [GdDOTA]^− (Dotarem) was diluted in saline solution. Eight-week-old male BALB/c mice (purchased from BioLASCO, Taiwan) each weighing approximately 25 g were administered with a single dose of 0.025 mmol/kg compound ([GdL1]^−, [GdL2]^−, [GdDOTA]^− and [GdL5]^−; 3 mice per compound per time point) in a 100 μl volume via lateral tail vein injection. The mice were then euthanized, and their blood collected by cardiac puncture at each time point (5, 15, 30, 60, 180 or 360 min post injection). A control group of 4 mice was treated with saline and killed at time point 0. The liver, lung, heart, kidneys, spleen and brain were removed from the animals and weighed. Gd content in tissue and blood samples was quantified via ICP-MS analysis. All experiments were performed in accordance with the NIH Guide for the Care and Use of Laboratory Animals and approved by the Institutional Animal Care and Use Committee of Massachusetts General Hospital or by the Department of Health of the Hong Kong Government and the Animal Subjects Ethics Sub-Committee of Hong Kong Polytechnic University.

[4] = In vivo dynamic T1-weighted MR imaging at 4.7T; set-up: species or system C57/Bl6 mice; conditions: 0.1 mmol per kg i.v., 4.7 tesla, n = 1
Experimental: Dynamic T1-weighted MR imaging at 4.7 tesla was performed with C57/Bl6 mice before, during, and after 0.1 mmol per kg injection of each compound (Fig. 7).
(§3) Imaging was performed at 4.7T using a small-bore animal scanner (Bruker Biospec). Pilot dynamic MRI studies were performed with [GdL1]^−, [GdL2A]^−, [GdL2B]^− and [GdL5]^−; n = 1 per compound. Six to eight weeks male C57/Bl6 mice were anaesthetised with isoflurane (1%–2%) and placed in a specially designed cradle with body temperature maintained at 37 °C. The tail vein was catherised for intravenous delivery of the contrast agent while the animal was positioned in the scanner. A pneumatic pillow was placed on the mouse to enable respiratory monitoring (SA Instruments), and the animal’s body temperature was maintained with warm air. The imaging protocol utilised a three-dimensional fast low angle shot (3D FLASH) with a […] flip angle, 9.00 ms repetition rate, 2.39 ms echo time, 4.8 cm × 2.4 cm × 2.4 cm field of view with a 0.3 mm isotropic resolution. Images were acquired with either 2 or 8 averages giving an acquisition time of 2 min or 8 min, respectively. Baseline images were acquired with both 2 and 8 averages, then the Gd complex (0.1 mmol per kg) was injected intravenously and the sequence with 2 averages was repeated for a period of 10 min to monitor blood clearance. At 10, 30, 45, 60, 75 and 90 min after probe injection, the sequence with 8 averages was repeated to monitor the clearance of contrast from the liver and kidneys. After imaging was performed, the mouse was removed from the scanner and euthanized at 2 h post injection and the tissues were harvested for Gd quantification by ICP-MS.

[5] = Ex vivo biodistribution 2 h post injection after MRI study (ICP-MS); type: in vivo, C57/Bl6 mice; conditions: 0.1 mmol per kg i.v.
Experimental: as §2, §3

[6] = 17O NMR water exchange (residence time of water co-ligand); type: physicochemical; conditions: 17O NMR at 11.7T
Experimental: as §1

[7] = Stability of Yb complexes in 1N DCl by 1H NMR; type: physicochemical
Experimental: (§4) The stability of CuDOTA and CuL2 was compared by UV-Visible spectra. […] Because the ionic radii of Lu(III) is very close to Yb(III), so we used the Yb(III) as a surrogate to study the stability. […] Additionally, we examined in vitro serum stability of ^64CuL2 at 37 °C.

[8] = In vitro serum stability of 64CuL2; type: in vitro ADME; conditions: 37 °C
Experimental: as §4

inertness upon heating ([1]; 90 °C for 3 days, pD 7.0 ([EuL2A]) and 6.0 ([EuL2B])): extreme inertness
racemization upon heating ([1]; heating for 3 days at pD 1.0): no signs of racemization
SMILES: CC[C@H]1CN(CC(=O)[O-])[C@@H](CC)CN(CC(=O)[O-])[C@@H](CC)CN(CC(=O)[O-])[C@@H](CC)CN1CC(=O)[O-].[Eu+3] [[EuL2A]^−]
stability with Zn2+ ([1]; 1 equivalent of Zn^2+): nor did the presence of 1 equivalent of Zn^2+ caused any instability

r1 relaxivity ([2]; 4.5% w/v HSA (1.4T)): 5.1 mM⁻¹ s⁻¹
r1 relaxivity ([2]; Human Plasma (1.4T)): 5.1 mM⁻¹ s⁻¹
r1 relaxivity ([2]; Water (1.4T)): 4.1 mM⁻¹ s⁻¹
Gd concentration in blood [5]: 0.80 nmol Gd per gram tissue
Gd concentration in gall bladder [5]: 60.17 nmol Gd per gram tissue
Gd concentration in heart [5]: 2.18 nmol Gd per gram tissue
Gd concentration in intestines [5]: 2.68 nmol Gd per gram tissue
Gd concentration in kidney [5]: over 90 nmol Gd per gram tissue
Gd concentration in liver [5]: 2.01 nmol Gd per gram tissue
Gd concentration in lung [5]: 1.49 nmol Gd per gram tissue
Gd concentration in muscle [5]: 2.97 nmol Gd per gram tissue
Gd concentration in spleen [5]: 4.43 nmol Gd per gram tissue
Gd concentration in stomach [5]: 1.11 nmol Gd per gram tissue
Gd concentration in tail [5]: 2.28 nmol Gd per gram tissue
Gd concentration in kidney ([5]; listed as GdL5): 93.23 nmol Gd per gram tissue
ΔH^‡, enthalpy change of activation of water exchange [6]: 4.3 ± 0.598 kcal/mol
τM^310K, mean residence time of the water co-ligand at 310 K ([6]; 310 K, q = 1 assumed): 16 ± 0.8 ns
SMILES: NCCCC[C@H]1CN(CC(=O)[O-])[C@@H](CCCCN)CN(CC(=O)[O-])[C@@H](CCCCN)CN(CC(=O)[O-])[C@@H](CCCCN)CN1CC(=O)[O-].[Gd+3] [[GdL5]^−]
Gd biodistribution / elimination profile [3]: mainly in the kidney and showed no tendency of clearance after 6 h
MR enhancement of liver and gall bladder [4]: very little enhancement in the liver
MR signal in the kidneys over time / at 60 min post injection [4]: renal cortex remained strongly enhanced

decomplexation [7]: decomplexed very fast
SMILES: O=C([O-])CN1CCN(CC(=O)[O-])CCN(CC(=O)[O-])CCN(CC(=O)[O-])CC1.[Yb+3] [[YbDOTA]^−, reference compound]

decomplexation [7]: no obvious decomplexation
SMILES: CC[C@H]1CN(CC(=O)[O-])[C@@H](CC)CN(CC(=O)[O-])[C@@H](CC)CN(CC(=O)[O-])[C@@H](CC)CN1CC(=O)[O-].[Yb+3] [[YbL2]^−]

decrease of radiochemical purity ([8]; 1 h of incubation): less than 0.3%
decrease of radiochemical purity ([8]; 24 h of incubation): < 6.3%
SMILES: CC[C@H]1CN(CC(=O)O)[C@@H](CC)CN(CC(=O)[O-])[C@@H](CC)CN(CC(=O)O)[C@@H](CC)CN1CC(=O)[O-].[64Cu+2] [^64CuL2]
